Reference: patent publication US6803372B2, “Spiro compounds” (Banyu Pharmaceutical Co., Ltd., priority 1999, dated 2004)

How the values were obtained:
human NPY Y5 receptor = biological target: T1, human NPY Y5 receptor (Homo sapiens, UniProt Q15761); test: NPY binding inhibition test (Pharmacological Test 1); conditions: [125I]peptideYY, membrane sample from cells expressing NPY Y5 receptor, 25° C., 2 hours; read-out: IC50 of the test compound against specific peptideYY binding
T1 construct: expressed in transfected cells; host or cells: COS-7, CHO and LM(tk-)
T1 sequence (Q15761 1-445): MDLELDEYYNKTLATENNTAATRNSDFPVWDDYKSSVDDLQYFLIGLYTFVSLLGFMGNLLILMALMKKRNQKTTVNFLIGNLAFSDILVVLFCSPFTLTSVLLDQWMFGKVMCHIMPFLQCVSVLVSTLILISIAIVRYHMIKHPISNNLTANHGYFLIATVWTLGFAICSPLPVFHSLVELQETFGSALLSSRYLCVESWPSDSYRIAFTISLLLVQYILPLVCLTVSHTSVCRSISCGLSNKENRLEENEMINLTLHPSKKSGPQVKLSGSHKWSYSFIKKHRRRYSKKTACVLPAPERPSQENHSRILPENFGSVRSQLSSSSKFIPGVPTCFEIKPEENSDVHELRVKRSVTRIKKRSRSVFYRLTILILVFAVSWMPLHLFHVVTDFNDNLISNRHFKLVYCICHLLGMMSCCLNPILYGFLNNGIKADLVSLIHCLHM
Description: Pharmacological Test 1 (NPY Binding Inhibition Test)
cDNA sequence encoding human NPY Y5 receptor [International patent publication number WO96/16542] was cloned into expression vectors pcDNA3, pRc/RSV (made by Invitrogen Inc.) and pCI-neo (made by Promega Inc.). This obtained expression vectors were transfected to host cells COS-7, CHO and LM(tk-) (American Type Culture Collection) by cationic lipid method [Proceedings of the National Academy of Sciences of the United States of America, 84: 7413(1987)] to give NPY Y5 receptor expression cells.
A membrane sample prepared from the cells which expressed NPY Y5 receptor was incubated together with a test compound and [^125I]peptideYY (NEN) (20,000 cpm) in an assay buffer (25 mM Tris buffer, pH7.4, containing 10 mM magnesium chloride, 1 mM phenylmethylsulfonyl fluoride, 0.1% bacitracin and 0.5% bovine serum albumin) at 25° C. for 2 hours, then filtered through a glass filter GF/C and washed with 5 mM Tris buffer (pH7.4) containing 0.3% BSA. The radioactivity of the cake on the glass filter was measured. Nonspecific binding was measured in the presence of 1 μM peptideYY and a 50% Inhibitory Concentration (IC50) of the test compound against specific peptideYY binding was determined [Endocrinology, 131: 2090(1992)].

[1] = Isolation of metabolites of compound of example 101; conditions: parent: compound of example 101

Row | SMILES | IC50 (human NPY Y5 receptor) [nM] | melting point [°C] | isolated as metabolite [1]
1 | O=C1OC2(CCN(C(=O)Nc3ccc4ncc(C(F)(F)F)cc4n3)CC2)c2ccccc21 [Example 26, 3-Oxo-N-(7-trifluoromethylpyrido[3,2-b]pyridin-2-yl)-spiro[isobenzofuran-1(3H),4′-piperidine]-1′-carboxamide] | 2.5 | 246 to 248 | 
2 | O=C1OC2(CCC(C(=O)Nc3cn(-c4cnc5ccccc5c4)cn3)CC2)c2ccccc21 (stereo not drawn) [Example 55, Trans-3′-oxo-N-[1-(3-quinolyl)-4-imidazolyl]spiro[cyclohexane-1,1′(3′H)-isobenzofuran]-4-carboxamide] | 0.59 | > 300 | 
3 | O=C1OC2(CCC(O)(C(=O)Nc3ccn(-c4ccccc4F)n3)CC2)c2cnccc21 (stereo not drawn) [Example 109, cis-N-[1-(2-fluorophenyl)-3-pyrazolyl]-4′-hydroxy-3-oxospiro[6-azaisobenzofuran-1(3H),1′-cyclohexane]-4′-carboxamide] |  |  | isolated as metabolites of compound of example 101
4 | O=C1Cc2ccccc2C2(CCN(C(=O)Nc3cn(-c4ccc5ccccc5n4)cn3)CC2)N1 [Example 9, 3,4-Dihydro-3-oxo-N-[1-(2-quinolyl)-4-imidazolyl]spiro[isoquinoline-1(2H),4′-piperidine]-1′-carboxamide] | 0.72 | 264 to 266 | 

Further lines, with some results ahead:

Row | IC50 (human NPY Y5 receptor) [nM] | melting point [°C] | SMILES | isolated as metabolite [1]
5 | 4.6 |  | O=C1OC2(CCC(C(=O)Nc3ccn(-c4ccccc4F)n3)CC2)c2c[n+]([O-])ccc21 (stereo not drawn) [Example 107, trans-N-[1-(2-fluorophenyl)-3-pyrazolyl]-3-oxospiro[6-azaisobenzofuran-1(3H),1′-cyclohexane]-4′-carboxamide 6-oxide] | isolated as metabolites of compound of example 101
6 | 3 |  | O=C1OC2(CCC(C(=O)Nc3ccn(-c4ccc(O)cc4F)n3)CC2)c2cnccc21 (stereo not drawn) [Example 108, trans-N-[1-(2-fluoro-4-hydroxyphenyl)-3-pyrazolyl]-3-oxospiro[6-azaisobenzofuran-1(3H),1′-cyclohexane]-4′-carboxamide] | isolated as metabolites of compound of example 101
